# According to US20020115611A1, “Methods for screening GABA-modulatory compounds for specified pharmacological activities” (priority 1999, published 2002):
# Read-outs that look alike come from different tables or passages of the source.
# Key:
# rats [1] = test: step-down passive avoidance; type: in vivo; conditions: rat; cognitive impairment side effect (Table VII); NS = no statistically significant effect over dose range
# From the text: (§1) A statistically significant effect in the spatial water maze, step-down passive avoidance, spontaneous locomotor activity, Porsolt swim test, or the elevated plus maze models is defined as p<0.05 using a valid parametric statistical test. Likewise, no statistically significant effect is defined in these models as p>0.05 using a valid parametric statistical test. No statistically significant effect for either of the seizure threshold models is defined as a decrease of less than 25% in the seizure threshold in the presence of a seizure inducing drug or a result that is not significant at the p<0.05 level.
# In step-down passive avoidance a rat is placed on a platform located in the center of an electrified grid floor that is contained within a large (45 cm×45 cm×50 cm) white translucent Plexiglas® enclosure. The natural inclination of the rat is to step off the platform and investigate its surroundings. […] Each time the animal steps off the platform it receives a mild foot shock of 2 mAmps×6 sec. Following each shock the animal is removed from the box, placed in its cage for a one minute inter-trial interval, and then returned to the platform. The latency to step down on each trial, the number of trials taken to reach criterion during training and the retention latency are collected.
# Testing is conducted approximately 24 hrs. after training. Drug-free animals are placed on the platform in the box in which they will have been trained and the latency to step down onto the grid floor is recorded for one trial as a measure of memory retention.
# [2] = target: α1β2γ2 GABAA subtype receptor (Homo sapiens, UniProt P14867+P18507); test: cell-based; conditions: for oocyte electrophysiology maximum potentiation α1β2γ2 / EC50: human subunits, GABA at EC10; for oocyte electrophysiology maximum potentiation α1β2γ2: negative = inverse agonism; for Emax: read-out: oocyte electrophysiology maximum potentiation α1β2γ2
# From the text: (§2) The in vitro efficacy and EC50 value of the test compound may be determined by measuring the chloride flux at the surface of a cell expressing the α,β, and γ subunits of the GABAA receptor in response to GABA by the two electrode voltage-clamp technique. While a variety of cells are suitable for use herein, the preferred cells used in this technique are Xenopus laevis oocytes that have been injected with non-polyadenylated CRNA coding for human derived α, βand γ GABAA subunits. The preferred form of the γ subunit is the normally expressed long form although an alternatively spliced form may be used.
# (§3) Assays are carried out as described previously in White and Gurley, 1995 and White, et al., 1995. Xenopus laevis oocytes are enzymatically isolated and injected with non-polyadenylated cRNA for human derived α, β and γ GABAA subunits, respectively. In more preferred embodiments cRNA for the α1β2γ2, α2β3γ2, α3β3γ2, and α5β3γ2 subunit combinations are injected. Only one of these subunit combinations is injected per cell. For each subunit combination, sufficient message is injected to result in current amplitudes of >10 nA when 1 μM GABA is applied. Electrophysiological recordings are carried out using the two electrode voltage-clamp technique at a membrane holding potential of −70 mV.
# (§4) Compounds are evaluated against a GABA concentration that evokes <10% (EC10) of the maximal evocable GABA current. Each oocyte is exposed to increasing concentrations of compound in order to evaluate a concentration/effect relationship.
# (§5) Specificity of a compound for the Ro15-1788 site is determined following completion of the concentration/effect curve. After washing the oocyte sufficiently to remove previously applied compound, the oocyte is exposed to GABA and 1 μM Ro15-1788, followed by exposure to GABA, 1 μM Ro15-1788, and compound. Percent change due to addition of compound is calculated as described above. Any percent change observed in the presence of Ro15-1788 is subtracted from the percent changes in current amplitude observed in the absence of 1 μM Ro15-1788. These net values are used for the calculation of average activity and EC50 values.
# (§6) To evaluate average activity and EC50 values, the concentration/effect data are averaged across cells and fit to the logistic equation. Average values are reported as mean±standard error.
# [3] = target: α3β3γ2 GABAA subtype receptor (Homo sapiens, UniProt P18507+P34903); test: cell-based; conditions: for EC50 / oocyte electrophysiology maximum potentiation α3β3γ2: human subunits, GABA at EC10; for Emax: read-out: oocyte electrophysiology maximum potentiation α3β3γ2; for oocyte electrophysiology maximum potentiation α3β3γ2: negative = inverse agonism
# From the text: as §2, §3, §4, §5, §6
# [4] = target: α2β3γ2 GABAA subtype receptor (Homo sapiens, UniProt P18507+P47869); test: cell-based; conditions: for EC50 / oocyte electrophysiology maximum potentiation α2β3γ2: human subunits, GABA at EC10; for Emax: read-out: oocyte electrophysiology maximum potentiation α2β3γ2; for oocyte electrophysiology maximum potentiation α2β3γ2: negative = inverse agonism
# From the text: as §2, §3, §4, §5, §6
# [5] = target: α5β3γ2 GABAA subtype receptor (Homo sapiens, UniProt P18507+P31644); test: cell-based; conditions: for Emax: read-out: oocyte electrophysiology maximum potentiation α5β3γ2
# From the text: as §2, §3, §4, §5, §6
# rats [6] = test: Porsolt forced swim test; type: in vivo; conditions: rat, administered IV; antidepressant effect
# From the text: as §1
# The effects measured in this model have been correlated to antidepressant efficacy for drugs. The paradigm of this model is that an effective antidepressant compound will cause a rat to make greater attempts to escape a water-filled cylinder than a rat given vehicle only.
# Animals used in this study were non-naive male Sprague Dawley Rats (SASCO, St. Louis) weighing between 280-350 grams. The test apparatus consists of 6 clear Plexiglas cylinders 40 cm high×19 cm wide. Cylinders are filled to 18 cm with 25° C. water. Each rat is placed in a cylinder for a 15 minute training session. Following either subchronic or acute dosing of either vehicle (0.5% methylcellulose) of compound, animals are brought back 24 hours later for a 5 minute test session. These test session is videotaped for later scoring.
# Subchronic dosing consists of administering drug three times in the 24-hour period between training and testing. The drug is administered 24 hrs., 5 hrs., and 1 hr. prior to the test session. Acute dosing consists of administering the drug once, 1 hour prior to the test session. Scoring is done using a time-sampling computer program written in Visual Basic and run in DOS. […] These sampling score are then converted into percentages of the test session.
# rats [7] = test: spontaneous locomotor activity; type: in vivo; conditions: rat, IV; sedation as side effect (Tables V and IX); NS = no statistically significant effect over dose range
# From the text: as §1
# Spontaneous locomotor activity can be measured to determine sedative effects of compounds. Locomotor activity is measured in eight computerized Digiscan-16 Animal Activity Monitors (Omnitech Electronics, Columbus, Ohio) equipped with 48 infrared photocell emitters and detectors. Each box is constructed of Plexiglas sides and floor. Horizontal activity is detected by a set of horizontal sensors on the front to back walls and a second group of sensors on the side to side walls located 5 cm above the cage floor. Vertical activity is detected by a third set of sensors on the side to side walls located 13.5 cm above the cage floor. The rats are tested in the presence of white noise (62 dB) and red light (60 watt). […]
# [8] = oocyte electrophysiology EC50 α1β2γ2, Xenopus laevis oocytes
# [9] = Xenopus laevis oocytes, read-out: oocyte electrophysiology EC50 α3β3γ2
# [10] = Xenopus laevis oocytes, read-out: oocyte electrophysiology EC50 α2β3γ2
# [11] = oocyte electrophysiology EC50 α3β3γ2, Xenopus laevis oocytes
# [12] = oocyte electrophysiology EC50 α5β3γ2, Xenopus laevis oocytes, human subunits, GABA at EC10
# [13] = oocyte electrophysiology EC50 α2β3γ2, Xenopus laevis oocytes
# [14] = Xenopus laevis oocytes, human subunits, GABA at EC10, read-out: oocyte electrophysiology EC50 α5β3γ2
# [15] = Xenopus laevis oocytes, read-out: oocyte electrophysiology EC50 α1β2γ2
# Chain of α2β3γ2 GABAA subtype receptor (P47869 29-451): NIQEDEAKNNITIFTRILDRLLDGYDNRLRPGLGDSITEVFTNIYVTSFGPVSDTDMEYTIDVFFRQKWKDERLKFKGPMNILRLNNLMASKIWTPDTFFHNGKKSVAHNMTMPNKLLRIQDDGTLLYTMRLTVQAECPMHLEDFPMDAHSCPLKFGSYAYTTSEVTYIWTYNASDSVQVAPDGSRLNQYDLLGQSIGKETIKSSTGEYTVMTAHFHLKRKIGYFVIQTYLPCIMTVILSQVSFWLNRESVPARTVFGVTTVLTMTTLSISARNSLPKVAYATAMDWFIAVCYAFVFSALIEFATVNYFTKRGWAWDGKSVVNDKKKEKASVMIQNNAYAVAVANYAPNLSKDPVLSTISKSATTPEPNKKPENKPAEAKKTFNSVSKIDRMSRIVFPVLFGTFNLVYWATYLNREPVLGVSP
# Chain of α2β3γ2 GABAA subtype receptor (P28472 26-473 partner): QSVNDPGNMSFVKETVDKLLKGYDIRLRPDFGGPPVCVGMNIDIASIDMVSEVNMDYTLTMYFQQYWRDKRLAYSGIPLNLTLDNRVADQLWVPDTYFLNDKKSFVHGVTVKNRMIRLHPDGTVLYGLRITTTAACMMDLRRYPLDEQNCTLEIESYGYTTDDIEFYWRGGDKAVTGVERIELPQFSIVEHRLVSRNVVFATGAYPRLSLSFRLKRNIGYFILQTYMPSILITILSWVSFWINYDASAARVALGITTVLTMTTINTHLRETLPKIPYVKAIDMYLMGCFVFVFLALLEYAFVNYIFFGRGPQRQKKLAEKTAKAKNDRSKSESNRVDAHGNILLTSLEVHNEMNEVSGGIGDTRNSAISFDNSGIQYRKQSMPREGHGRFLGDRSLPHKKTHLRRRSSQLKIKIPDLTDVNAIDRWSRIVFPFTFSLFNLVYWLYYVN
# Chain of α2β3γ2 GABAA subtype receptor (P18507 40-475): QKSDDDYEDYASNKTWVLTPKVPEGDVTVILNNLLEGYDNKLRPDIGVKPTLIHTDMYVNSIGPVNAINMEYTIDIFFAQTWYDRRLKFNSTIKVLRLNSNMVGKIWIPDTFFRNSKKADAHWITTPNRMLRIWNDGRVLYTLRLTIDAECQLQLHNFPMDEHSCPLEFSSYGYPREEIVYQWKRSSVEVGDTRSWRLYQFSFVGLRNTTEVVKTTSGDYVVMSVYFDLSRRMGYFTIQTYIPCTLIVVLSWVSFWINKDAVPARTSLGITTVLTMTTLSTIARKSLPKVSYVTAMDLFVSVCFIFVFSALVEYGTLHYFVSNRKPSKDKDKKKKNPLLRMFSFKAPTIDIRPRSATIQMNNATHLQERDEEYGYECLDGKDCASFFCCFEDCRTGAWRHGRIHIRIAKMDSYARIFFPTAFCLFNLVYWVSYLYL
# Chain of α1β2γ2 GABAA subtype receptor (P14867 28-456): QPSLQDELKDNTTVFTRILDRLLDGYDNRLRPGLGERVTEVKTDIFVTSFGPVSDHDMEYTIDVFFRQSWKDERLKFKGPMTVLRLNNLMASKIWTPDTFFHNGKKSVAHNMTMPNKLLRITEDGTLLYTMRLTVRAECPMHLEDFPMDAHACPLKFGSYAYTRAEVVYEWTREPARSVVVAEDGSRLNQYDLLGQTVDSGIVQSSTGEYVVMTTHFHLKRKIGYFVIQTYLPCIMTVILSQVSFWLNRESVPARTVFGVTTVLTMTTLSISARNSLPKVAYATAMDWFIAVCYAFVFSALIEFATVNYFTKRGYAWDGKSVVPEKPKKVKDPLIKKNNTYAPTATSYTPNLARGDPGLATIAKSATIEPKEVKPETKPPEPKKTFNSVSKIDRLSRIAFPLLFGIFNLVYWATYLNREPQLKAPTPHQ
# Chain of α1β2γ2 GABAA subtype receptor (P47870 25-512 partner limits assumed): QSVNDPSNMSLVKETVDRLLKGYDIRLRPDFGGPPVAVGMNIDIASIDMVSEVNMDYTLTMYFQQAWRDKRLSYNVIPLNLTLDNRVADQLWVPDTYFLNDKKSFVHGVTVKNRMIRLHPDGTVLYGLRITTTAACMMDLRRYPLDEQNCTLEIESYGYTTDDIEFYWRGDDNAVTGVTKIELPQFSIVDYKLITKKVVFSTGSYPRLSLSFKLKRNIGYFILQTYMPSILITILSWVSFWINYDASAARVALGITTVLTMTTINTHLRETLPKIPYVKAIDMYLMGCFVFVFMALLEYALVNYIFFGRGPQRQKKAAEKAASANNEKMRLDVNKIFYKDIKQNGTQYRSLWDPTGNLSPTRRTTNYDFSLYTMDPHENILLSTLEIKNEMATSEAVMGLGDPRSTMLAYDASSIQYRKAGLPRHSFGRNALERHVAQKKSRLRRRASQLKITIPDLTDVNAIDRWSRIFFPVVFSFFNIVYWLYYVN
# Chain of α1β2γ2 GABAA subtype receptor (P18507 40-475): as the sequence (P18507 40-475) above
# Chain of α5β3γ2 GABAA subtype receptor (P31644 32-462): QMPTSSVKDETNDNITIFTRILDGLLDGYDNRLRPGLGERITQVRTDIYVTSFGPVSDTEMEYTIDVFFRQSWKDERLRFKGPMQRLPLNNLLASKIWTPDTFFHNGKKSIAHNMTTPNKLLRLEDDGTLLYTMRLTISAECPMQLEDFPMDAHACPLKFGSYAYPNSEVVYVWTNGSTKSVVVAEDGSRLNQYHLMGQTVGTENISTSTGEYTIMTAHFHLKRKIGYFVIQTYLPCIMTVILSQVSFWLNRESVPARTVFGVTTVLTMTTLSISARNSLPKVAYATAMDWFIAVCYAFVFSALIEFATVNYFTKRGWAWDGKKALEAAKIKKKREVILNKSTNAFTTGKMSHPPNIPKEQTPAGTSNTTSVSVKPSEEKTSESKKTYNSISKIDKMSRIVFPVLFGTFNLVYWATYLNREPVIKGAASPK
# Chain of α5β3γ2 GABAA subtype receptor (P28472 26-473 partner): as the sequence (P28472 26-473 partner) above
# Chain of α5β3γ2 GABAA subtype receptor (P18507 40-475): as the sequence (P18507 40-475) above
# Chain of α3β3γ2 GABAA subtype receptor (P34903 29-492): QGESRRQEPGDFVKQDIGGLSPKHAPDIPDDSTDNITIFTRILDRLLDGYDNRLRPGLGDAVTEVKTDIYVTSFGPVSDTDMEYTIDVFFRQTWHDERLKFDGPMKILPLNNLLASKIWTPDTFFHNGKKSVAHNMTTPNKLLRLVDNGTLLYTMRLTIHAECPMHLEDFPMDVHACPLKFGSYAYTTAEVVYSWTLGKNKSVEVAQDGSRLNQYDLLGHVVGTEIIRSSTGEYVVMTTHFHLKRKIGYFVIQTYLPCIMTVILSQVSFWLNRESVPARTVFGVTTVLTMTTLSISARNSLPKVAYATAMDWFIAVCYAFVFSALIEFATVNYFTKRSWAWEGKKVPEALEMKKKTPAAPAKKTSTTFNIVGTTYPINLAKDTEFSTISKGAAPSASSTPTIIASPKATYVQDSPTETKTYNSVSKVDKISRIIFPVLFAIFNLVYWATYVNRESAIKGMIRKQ
# Chain of α3β3γ2 GABAA subtype receptor (P28472 26-473 partner): as the sequence (P28472 26-473 partner) above
# Chain of α3β3γ2 GABAA subtype receptor (P18507 40-475): as the sequence (P18507 40-475) above
SMILES,oocyte electrophysiology maximum potentiation α1β2γ2 ([2]; Xenopus laevis oocytes),"EC50 [2, 8]","EC50 [3, 9]","EC50 [3, 11]","EC50 [5, 12]",oocyte electrophysiology maximum potentiation α2β3γ2 ([4]; Xenopus laevis oocytes),"EC50 [4, 13]","EC50 [5, 14]",also measured
c1cc2c(cc1-c1ncc3[nH]c4c(c3n1)CCCC4)OCO2 [compound 9],33%,74 nM,331 nM,–,–,–,–,–,"step-down passive avoidance, minimal efficacious dose (rats [1]): 0.5 mg/kg; Emax [3]: 23%; EC50 [4, 10]: 184 nM; Emax [4]: 53%"
O=c1c(-c2ccccc2F)nc2c[nH]c3ccccc3n1-2 [compound 2],18%,33 nM,–,23 nM,0.036 µM,40%,12 nM,–,–
O=C(Nc1cccc(F)c1)c1c[nH]c2c(c1=O)CCC2 [compound 5],–,–,–,21 nM,–,44%,9 nM,–,–
"CC(C)(C)OC(=O)c1ncn2c1C1CCCN1C(=O)c1c(Br)cccc1-2 (centres unmarked) [Ro16-6028, reference compound]",–,–,–,–,–,–,–,–,"Porsolt swim test, minimal efficacious dose (rats [6]): 1 mg/kg; spontaneous locomotor activity, minimal efficacious dose (rats [7]): 0.06 mg/kg"
COc1ccc(NC(=O)c2c[nH]c3c2C(=O)CC(C)(C)C3)c(F)c1 [compound 6],–,44 nM,–,33 nM,–,72%,28 nM,0.108 µM,"step-down passive avoidance, minimal efficacious dose (rats [1]): 4 mg/kg; Emax [2]: 25%; oocyte electrophysiology maximum potentiation α3β3γ2 ([3]; Xenopus laevis oocytes): 95%; Emax [5]: 42%"
"Cc1nnc2n1-c1ccc(Cl)cc1C(c1ccccc1)=NC2 [Alprazolam, reference compound]",–,37 nM,–,69 nM,0.01 µM,–,12 nM,–,–
CCOc1ccc(-n2c(=O)c3c[nH]c4ccccc4n-3c2=O)cc1 [compound 1],12%,6 nM,144 nM,35 nM,–,71%,20 nM,–,"Porsolt swim test, minimal efficacious dose (rats [6]): 20 mg/kg; EC50 [2, 15]: 159 nM; EC50 [4, 10]: 114 nM"
CC1CC(=O)c2c(C(=O)Nc3ccc(F)cc3)c[nH]c2C1 (centres unmarked) [compound 8],17%,14 nM,–,37 nM,0.04 µM,42%,39 nM,–,"oocyte electrophysiology maximum potentiation α3β3γ2 ([3]; Xenopus laevis oocytes): 61%; oocyte electrophysiology maximum potentiation α5β3γ2 ([5]; Xenopus laevis oocytes, human subunits, GABA at EC10, negative = inverse agonism): 16%"
O=C(Nc1ccccc1)c1c[nH]c2c1C(=O)CCCC2 [compound 13],–,3 nM,–,36 nM,0.023 µM,–,53 nM,–,–
CCOc1ccc(NC(=O)c2c[nH]c3c2C(=O)CCC3)cc1 [compound 3],–,33 nM,133 nM,23 nM,0.036 µM,–,12 nM,0.186 µM,"Porsolt swim test, minimal efficacious dose (rats [6]): 20 mg/kg; EC50 [2, 15]: 107 nM; Emax [2]: 26%; EC50 [4, 10]: 108 nM; Emax [4]: 52%; spontaneous locomotor activity, minimal efficacious dose (rats [7]): 4 mg/kg"
O=c1c2c[nH]c3ccccc3n-2c(=O)n1-c1ccc(F)cc1 [compound 10],–,–,–,46 nM,0.081 µM,–,31 nM,–,–
O=C(Nc1ccc(OCCO)cc1)c1c[nH]c2c1C(=O)CCC2 [compound 12],15%,18 nM,–,18 nM,0.019 µM,–,11 nM,–,–
O=c1[nH]c2c(n1-c1nc3ccc(F)c(F)c3o1)CCCCC2 [compound 7],18%,5 nM,–,9 nM,–,51%,4 nM,0.174 µM,oocyte electrophysiology maximum potentiation α3β3γ2 ([3]; Xenopus laevis oocytes): 83%
"Cc1ccc(-c2nc3ccc(C)cn3c2CC(=O)N(C)C)cc1 [Zolpidem, reference compound]",–,–,–,–,–,–,–,–,"step-down passive avoidance, minimal efficacious dose (rats [1]): 0.5 mg/kg; Emax [3]: 882%; EC50 ([5]; oocyte electrophysiology EC50 α5β3γ2, Xenopus laevis oocytes, human subunits, μM): > 3 µM; Emax [5]: < 20%; Emax [4]: 350%"
CNCc1ccc(NC(=O)c2c[nH]c3c2C(=O)CCCC3)cc1 [compound 4],23%,48 nM,133 nM,51 nM,–,66%,19 nM,0.186 µM,"Porsolt swim test, minimal efficacious dose (rats [6]): 20 mg/kg; EC50 [2, 15]: 107 nM; EC50 [4, 10]: 108 nM"
COc1ccc(F)c(-c2ncc3[nH]c4c(c3n2)CCCC4)c1 [compound 11],–,21 nM,177 nM,–,–,–,96 nM,0.847 µM,–
